Measurements as given in article PMC9495262, “In Vitro Antiparasitic Activities of Monovalent Ionophore Compounds for Human and Canine Leishmaniases” (Animals : an Open Access Journal from MDPI, 2022).
Like-named read-outs stand apart in the source and are kept apart here.

Tests used:
[1] = test system: L. infantum promastigotes; experiment: Leishmania promastigote viability assay (MTT), L. infantum; format: cell-based; settings: mean ± SD of three experiments in duplicate
Method: (§1) Promastigote stages of L. infantum strain (MHOM/TN/80/IPT1) (WHO international reference strain, kindly provided by Dr. M. Gramiccia and Dr. T. Di Muccio, ISS, Roma, Italy), and clinical isolates of L. tropica (MHOM/SY/2012/ISS3130) and L. braziliensis (MHOM/PE/2006/ISS2848) (kindly provided by Dr. R. Grande, Sacco Hospital, Milan, Italy), were cultured in Schneider’s Drosophila medium (Lonza) supplemented with 2 mM L-glutamine and 10% heat-inactivated FBS (HyClone) at 24 °C.
(§2) To estimate the 50% inhibitory concentration (IC50) of compounds on both cells and Leishmania promastigotes, the MTT (3-[4,5-dimethylthiazol-2-yl]-2,5-diphenyltetrazolium bromide) assay was used with minor modifications. Briefly, monensin and nigericin were dissolved in ethanol (10 mg/mL), and salinomycin and amphotericin B in DMSO (10 mg/mL). All compounds were then diluted with medium to achieve the required concentrations (final DMSO or ethanol concentration <1%, non-toxic to the parasite or cells). The complete medium used for the antileishmanial activity assay was RPMI 1640 (EuroClone) supplemented with 10% heat-inactivated FBS (EuroClone), 20 mM HEPES, and 2 mM L -glutamine. Drugs were added to 96-well round-bottom microplates and seven serial dilutions were performed. Amphotericin B was used as the reference anti-Leishmania drug. Subsequently, 100 μL of the parasite suspension (5 × 10^6 parasites/mL) was dispensed into the plates. After 72h of incubation at 24 °C, 20 μL of MTT solution (5 mg/mL in PBS) was added into each well. After 3 h in the dark, the plates were centrifuged, the supernatants discarded, and the formazan crystals in the pellet dissolved in 100 μL of lysing buffer (20% w/v of a solution of SDS -Merck-, and 40% of N,N-dimethylformamide -Merck- in H2O).
(§3) For cell cytotoxicity experiments, 100 μL (5 × 10 ^5 cells/mL) of THP-1 cells were plated in 96-well flat-bottom microplates and treated with 0.1 µM phorbol myristate acetate (PMA, Merck, Kenilworth, NJ, USA) for 72 h to achieve differentiation into macrophages. Cells were then treated with different drug concentrations (60–0.4 µM). After 72 h, 20 μL of the MTT solution was added into each well. After 3 h in the dark, the supernatants were discarded and the formazan crystals dissolved in 100 μL of the same lysing buffer described above. The absorbance was then measured spectrophotometrically at 550 nm (reference wavelength 650 nm). The results are expressed as IC50, which is the dose of compound necessary to inhibit parasite and cell growth by 50%. The IC50 values were extrapolated from nonlinear regression analysis of the concentration–response curve using the software Gen5 1.10 provided with the Synergy 4 (BioTek, Winooski, VT, USA) reader. Data are the mean ± standard deviation of individual experiments performed in duplicate.

[2] = test system: L. braziliensis promastigotes; experiment: Leishmania promastigote viability assay (MTT), L. braziliensis; format: cell-based; settings: mean ± SD of three experiments in duplicate
Method: as §1, §2, §3

L. tropica promastigotes = experiment: Leishmania promastigote viability assay (MTT), L. tropica; format: cell-based; settings: mean ± SD of three experiments in duplicate
Method: as §1, §2, §3

[3] = Cytotoxicity (MTT) on PMA-differentiated THP-1 macrophages; format: cell-based; settings: human
Method: THP-1 cells (human acute monocytic leukemia cell line) were maintained in Roswell Park Memorial Institute (RPMI) 1640 medium supplemented with 10% fetal bovine serum (FBS, EuroClone), 50 µM 2-mercaptoethanol, 20 mM HEPES, and 2 mM L-glutamine, at 37 °C in 5% CO2.
as §3

[4] = test system: L. infantum intracellular amastigotes; experiment: Intracellular amastigote susceptibility assay in human dTHP-1 (Giemsa counting); format: cell-based, Leishmania infantum; settings: for IC50: Leishmania infantum, read-out: Amastigotes IC50; for SI (Selectivity index = IC50 dTHP-1/IC50 amastigotes): ratio of cytotoxicity on dTHP-1 to activity on L. infantum amastigotes
Method: For Leishmania spp. infections, 100 μL of THP-1 cells (5 × 10^5 cells/mL) or canine macrophages (2 × 10^6 cells/mL) were plated in 16-chamber Lab-Tek culture slides (Nunc) and further treated with 0.1 µM of PMA for 72 h to achieve differentiation into macrophages. Cells were then washed with PBS and infected with stationary phase L. infantum promastigotes at a macrophage:promastigote ratio of 1:10. After 24 h, cell monolayers were extensively washed with PBS to remove non-internalized promastigotes and observed under an inverted light microscope to evaluate both the cellular size and the cellular morphology. Infected cells were then incubated in the presence of test compounds for 72 h. Infected and/or treated cells were then fixed with 100% methanol and stained with Giemsa at room temperature. The percentage of infected macrophages in treated and non-treated wells was determined by counting 200–300 macrophages/well under a light microscope. About 10 random microscopic fields/well were observed. The number of infected macrophages in the untreated control samples was considered 100% for calculating the percentage of infection in drug treated samples. IC50 values were then calculated. Data are the mean ± standard deviation of individual experiments performed in triplicate.
Next, human macrophages (dTHP-1) were infected with stationary-phase promastigotes of L. infantum at a cell:promastigote ratio of 1:10 for 24 h, and allowed to differentiate into intracellular parasite forms. After the removal of free promastigotes, the infected macrophages were incubated for 72 h in the presence of the ionophores at different concentrations. A significant reduction in the number of infected macrophages was observed after treatment with all the compounds tested. The inhibition was dose-dependent with IC50s between 1 and 2 µM (Table 3).

in vitro = format: cell-based; settings: human
Method: as §3
Non-infected human macrophages (PMA-differentiated THP-1, dTHP-1) and human dermal fibroblasts (HDF) were incubated in the presence of different concentrations of ionophores to determine the nontoxic concentration for mammalian cells.

[5] = test system: all Leishmania spp. promastigotes; experiment: Promastigote viability assay, all Leishmania species tested (summary statements); format: cell-based; settings: read-out: IC50 against all Leishmania spp. promastigotes tested
Method: as §1
as §2, with “After 3 h in the dark, the plates were centrifuged, the supernatants discarded, and the formazan crystals in the pellet dissolved in 100 μL of lysing buffer (20% w/v of a solution of SDS -Merck-, and 40% of N,N-dimethylformamide -Merck- in H2O).” left out
For cell cytotoxicity experiments, 100 μL (5 × 10 ^5 cells/mL) of THP-1 cells were plated in 96-well flat-bottom microplates and treated with 0.1 µM phorbol myristate acetate (PMA, Merck, Kenilworth, NJ, USA) for 72 h to achieve differentiation into macrophages. […] The absorbance was then measured spectrophotometrically at 550 nm (reference wavelength 650 nm). […] The IC50 values were extrapolated from nonlinear regression analysis of the concentration–response curve using the software Gen5 1.10 provided with the Synergy 4 (BioTek, Winooski, VT, USA) reader. […]

[6] = test system: L. donovani intracellular amastigotes; set-up: method as in PMID 21358812; settings: read-out: IC50 against intracellular amastigotes, ex vivo splenic explant model of L. donovani infection; cited from earlier work
[7] = test system: promastigotes of L. donovani; set-up: method as in PMID 12864731; settings: previous work; read-out: IC50 against promastigotes of L. donovani; cited from earlier work
[8] = Leishmania infantum, MTT assay after 72 h of treatment, read-out: IC50 against L. infantum promastigotes
[9] = Leishmania braziliensis, MTT assay after 72 h of treatment, read-out: IC50 against L. braziliensis promastigotes
[10] = Leishmania tropica, MTT assay after 72 h of treatment, read-out: IC50 against L. tropica promastigotes
[11] = non-infected PMA-differentiated THP-1 macrophages (dTHP-1), non-infected PMA-differentiated THP-1, MTT assay after 72 h of treatment, read-out: CC50 dTHP-1
[12] = L. infantum-infected dTHP-1 treated for 72 h, Giemsa, percentage of infected cells
[13] = L. infantum, L. tropica and L. braziliensis promastigotes, summary statement

Q: What does the source list for `C[C@@H]1[C@H](O)[C@@H](C)/C=C/C=C/C=C/C=C/C=C/C=C/C=C/[C@H](O[C@@H]2O[C@H](C)[C@@H](O)[C@H](N)[C@@H]2O)C[C@@H]2O[C@](O)(C[C@@H](O)C[C@@H](O)[C@H](O)CC[C@@H](O)C[C@@H](O)CC(=O)O[C@H]1C)C[C@H](O)[C@H]2C(=O)O` [Amphotericin B]?
A: IC50 [1, 8]: 120 ± 20 nM; IC50 [2, 9]: 80 ± 20 nM; IC50 (L. tropica promastigotes; [10]): 100 ± 20 nM; CC50 at 72 h [3, 11]: > 20000 nM; IC50 [4, 12]: 180 ± 30 nM; SI (Selectivity index = IC50 dTHP-1/IC50 amastigotes) [4]: >111.1

Q: With `CC[C@@]1([C@@H]2O[C@@H]([C@H]3O[C@@](O)(CO)[C@H](C)C[C@@H]3C)C[C@@H]2C)CC[C@H]([C@]2(C)CC[C@]3(C[C@H](O)[C@@H](C)[C@@H]([C@@H](C)[C@@H](OC)[C@H](C)C(=O)O)O3)O2)O1` [Monensin, monensin] as the compound, how does the IC50 [1, 8] read?
A: 630 ± 110 nM

Q: What about the IC50 [2, 9] of the same compound?
A: 270 ± 130 nM

Q: What about the IC50 (L. tropica promastigotes; [10]) of the same compound?
A: 350 ± 170 nM

Q: What about the CC50 at 72 h [3] of the same compound?
A: > 60000 nM

Q: What about the CC50 at 72 h (in vitro) of the same compound?
A: > 60000 nM

Q: What about the IC50 [4, 12] of the same compound?
A: 1670 ± 430 nM

Q: What about the “SI (Selectivity index = IC50 dTHP-1/IC50 amastigotes)” value [4] of the same compound?
A: >35.9

Q: And the IC50 [5, 13]?
A: < 1000 nM

Q: What about the IC50 [6] of the same compound?
A: 850 nM

Q: Which results are given for `CC[C@@H](C(=O)[C@@H](C)[C@@H](O)[C@H](C)[C@@H]1O[C@@H]([C@@H](CC)C(=O)O)CC[C@@H]1C)[C@H]1O[C@]2(C=C[C@@H](O)[C@]3(CC[C@@](C)([C@H]4CC[C@](O)(CC)[C@H](C)O4)O3)O2)[C@H](C)C[C@@H]1C` [Salinomycin, salinomycin]?
A: IC50 ([1]; Leishmania infantum, 72 h, read-out: IC50 against L. infantum promastigotes, MTT assay after 72 h of treatment): ~8000 nM; IC50 ([1]; read-out: IC50 against L. infantum promastigotes, MTT assay after 72 h of treatment): 7980 ± 640 nM; IC50 ([2]; Leishmania braziliensis, 72 h, read-out: IC50 against L. braziliensis promastigotes, MTT assay after 72 h of treatment): ~5000 nM; IC50 ([2]; read-out: IC50 against L. braziliensis promastigotes, MTT assay after 72 h of treatment): 5080 ± 1740 nM; IC50 (L. tropica promastigotes; Leishmania tropica, 72 h, read-out: IC50 against L. tropica promastigotes, MTT assay after 72 h of treatment): ~5000 nM; IC50 (L. tropica promastigotes; read-out: IC50 against L. tropica promastigotes, MTT assay after 72 h of treatment): 4530 ± 600 nM; CC50 at 72 h [3, 11]: 32100 ± 5300 nM; CC50 at 72 h (in vitro): > 60000 nM; IC50 ([4]; 72 h): 1930 ± 100 nM; SI (Selectivity index = IC50 dTHP-1/IC50 amastigotes) [4]: 16.6; IC50 [5]: > 4000 nM; IC50 [7]: ~1700 nM

Q: Which IC50 [1, 8] does the source give for `CO[C@@H]1C[C@@H](C[C@H]2CC[C@H](C)[C@H]([C@@H](C)C(=O)O)O2)O[C@]2(O[C@](C)([C@H]3CC[C@@](C)([C@@H]4O[C@@H]([C@H]5O[C@@](O)(CO)[C@H](C)C[C@@H]5C)C[C@@H]4C)O3)C[C@H]2C)[C@@H]1C` [Nigericin, nigericin] here?
A: 370 ± 40 nM

Q: What about the IC50 [2, 9] of the same compound?
A: 780 ± 80 nM

Q: And the IC50 (L. tropica promastigotes; [10])?
A: 230 ± 50 nM

Q: What about the CC50 at 72 h [3] of the same compound?
A: > 60000 nM

Q: What about the CC50 at 72 h (in vitro) of the same compound?
A: > 60000 nM

Q: What about the IC50 [4, 12] of the same compound?
A: 1790 ± 830 nM

Q: What about the “SI (Selectivity index = IC50 dTHP-1/IC50 amastigotes)” value [4] of the same compound?
A: >33.5

Q: And the IC50 [5, 13]?
A: < 1000 nM
